Reference: the supplement of paper PMC10307832

Legend:
Experiment in all cases: relative viability (nuclei count vs DMSO), 5 days (fraction); higher = more cells survive
Cediranib + OSI-027 = compound: COc1cc2c(Oc3ccc4[nH]c(C)cc4c3F)ncnc2cc1OCCCN1CCCC1 [Cediranib] + COc1cccc2cc(-c3nc([C@H]4CC[C@H](C(=O)O)CC4)n4ncnc(N)c34)[nH]c12 [OSI-027] (partner 0.5 µM)
Outline: (§1)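 Nuclei were stained with Hoechst during a one-step fixation (final 0.05% Triton X-100, 1% formaldehyde, 1 ug/ml Hoechst) carried out 5 days after dosing, then counted on 4× images. The cells, lung cancer lines in 1536-well plates, had been dosed by pin tool the day after seeding with one drug alone or a fixed anchor-drug dose plus five library-drug doses (not always all listed) in √10 steps. Relative viability is the nuclei count in treated wells divided by that in vehicle wells, and each value is the median of duplicate plates.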

Decitabine + Foretinib = compound: Nc1ncn([C@H]2C[C@H](O)[C@@H](CO)O2)c(=O)n1 [Decitabine] + COc1cc2c(Oc3ccc(NC(=O)C4(C(=O)Nc5ccc(F)cc5)CC4)cc3F)ccnc2cc1OCCCN1CCOCC1 [Foretinib] (partner 0.25 µM)
Outline: as §1

Decitabine + Vorinostat = compound: Nc1ncn([C@H]2C[C@H](O)[C@@H](CO)O2)c(=O)n1 [Decitabine] + O=C(CCCCCCC(=O)Nc1ccccc1)NO [Vorinostat] (partner 1 µM)
Outline: as §1

[1] = compound: O=C(C[C@H]1NCCC[C@@H]1O)Cn1cnc2cc(Br)c(Cl)cc2c1=O (racemic) [Halofuginone] + Nc1ncn([C@H]2C[C@H](O)[C@@H](CO)O2)c(=O)n1 [Decitabine] (partner 2 µM)
Outline: as §1

Cell Line	relative viability (Cediranib + OSI-027; first compound 0.04 µM)	relative viability (Cediranib + OSI-027; first compound 0.4 µM)	relative viability (Cediranib + OSI-027; first compound 1.265 µM)	relative viability (Cediranib + OSI-027; first compound 4 µM)	relative viability (Decitabine + Foretinib; first compound 0.04 µM)	relative viability (Decitabine + Foretinib; first compound 0.1265 µM)	relative viability (Decitabine + Foretinib; first compound 0.4 µM)	relative viability (Decitabine + Foretinib; first compound 1.265 µM)	relative viability (Decitabine + Foretinib; first compound 4 µM)	relative viability (Decitabine + Vorinostat; first compound 0.04 µM)	relative viability (Decitabine + Vorinostat; first compound 0.1265 µM)	relative viability (Decitabine + Vorinostat; first compound 0.4 µM)	relative viability (Decitabine + Vorinostat; first compound 1.265 µM)	relative viability (Decitabine + Vorinostat; first compound 4 µM)	relative viability ([1]; first compound 0.001 µM)	relative viability ([1]; first compound 0.003162 µM)	relative viability ([1]; first compound 0.01 µM)	relative viability ([1]; first compound 0.03162 µM)	relative viability ([1]; first compound 0.1 µM)	relative viability (Cediranib + OSI-027; first compound 0.1265 µM)
NCI-H3122	1.09	0.897	0.888	0.975	0.898	0.775	0.715	0.539	0.575	0.92	0.866	0.574	0.53	0.487	0.438	0.442	0.381	0.413	0.405	
PC-3 [JPC-3]	0.777	0.73	0.688	0.627	0.833	0.71	0.588	0.54	0.472		0.554	0.507	0.454	0.567	0.77	0.832	0.861	0.923	0.781	0.824
PC-14	0.993	0.735	0.61	0.724		0.744	0.411	0.313	0.282	0.0877	0.265	0.125	0.0989	0.0956	0.231	0.273	0.237	0.259	0.0807	0.894
RERF-LC-KJ	0.572	0.547	0.492	0.523	0.877	0.84	0.741	0.689	0.635	0.573	0.651	0.286	0.528	0.494	0.842	0.807	0.664	0.753	0.563	0.511
SK-LU-1	0.343	0.338	0.257	0.33	0.686	0.674	0.376	0.356	0.356	0.611	0.65	0.443	0.453	0.433	0.705	0.599	0.714	0.606	0.422	0.39
SK-MES-1	0.666	0.608	0.542	0.788	0.688	0.758	0.697	0.407	0.309	0.812	0.739	0.529	0.301	0.319	0.377	0.365	0.341	0.341	0.17	0.633
SW 900	0.712	0.504	0.59	0.69	0.489	0.305	0.206	0.167	0.202	0.333	0.42	0.33	0.193	0.286	0.484	0.418		0.443	0.358	0.642
SW 1573	0.682	0.604	0.427	0.662	0.769	0.891	0.793	0.591	0.49	0.515	0.601	0.458	0.325	0.206	0.627	0.552	0.491	0.282	0.135	0.644
